Assay results published in patent US11839671B2, “Oral care compositions comprising tin ions” (The Procter & Gamble Company, priority 2019, dated 2023).

Assay: Solubility of tin ions in polyol solutions with SnF2 at various pH (visual appearance)
Format: physicochemical
Settings: for Appearance of polyol solution with SnF2, pH 2-4 / Appearance of polyol solution with SnF2, pH 4-6 / Appearance of polyol solution with SnF2, pH 6-8 / Appearance of polyol solution with SnF2, pH 8-10: aqueous polyol solution + 0.45 g SnF2; for Appearance of polyol solution with SnF2, pH 2-4 / Appearance of polyol solution with SnF2, pH 4-6 / Appearance of polyol solution with SnF2, pH 6-8: cloudy = insoluble tin complexes formed; for Appearance of polyol solution with SnF2, pH 8-10: cloudy = Sn(OH)2 formed; for Appearance of polyol/stannous fluoride solution at a pH of greater than 7: aqueous polyol/stannous fluoride solution, pH greater than 7, cloudy = Sn(OH)2 formation not prevented
Experimental: A 30% (w/w) solution was prepared for each polyol was prepared using the appropriate amount of the pure polyol and deionized water. Next, 46 g of the 30% (w/w) polyol solution was placed in a 250 mL glass beaker with a stirring bar on top of a magnetic stirring apparatus. 21 g of deionized water was added to the glass beaker and the magnetic stirring apparatus was started to commence stirring of the solution. A pH electrode was connected to a pH meter (VWR Scientific, Model 9100, Radnor, Pa.) and the pH electrode (ThermoFisher Scientific, Orion 8165BNWP, Waltham, Mass.) was placed in the stirring polyol solution.
0.45 grams of a tin ion source, such as stannous fluoride, was added to the stirring polyol solution. The pH was recorded once the tin ion source was completely added. The pH of the solution was increased by dropwise addition of a 33% (w/w) solution of NaOH.
0.45 grams of a tin ion source, such as stannous fluoride, was added to the stirring polyol solution. The pH was recorded once the tin ion source was completely added. The pH of the solution was decreased by dropwise addition of a 33% (w/w) solution of HCl.
A solution that appeared cloudy indicated the formation of insoluble tin complexes. At a pH of greater than 7, a cloudy solution indicated the formation of Sn(OH)2. FIG. 1-4 illustrates TABLE 2 by showing the appearance of each solution described in TABLE 2.

SMILES | Appearance of polyol solution with SnF2, pH 2-4 | Appearance of polyol solution with SnF2, pH 4-6 | Appearance of polyol solution with SnF2, pH 6-8 | Appearance of polyol solution with SnF2, pH 8-10 | Appearance of polyol/stannous fluoride solution at a pH of greater than 7 | Appearance of polyol solution with SnF2, pH 2-4 (listed as sorbitol) | Appearance of polyol solution with SnF2, pH 4-6 (listed as sorbitol) | Appearance of polyol solution with SnF2, pH 6-8 (listed as sorbitol) | Appearance of polyol solution with SnF2, pH 8-10 (listed as sorbitol) | Appearance of polyol solution with SnF2, pH 2-4 (listed as xylitol) | Appearance of polyol solution with SnF2, pH 4-6 (listed as xylitol) | Appearance of polyol solution with SnF2, pH 6-8 (listed as xylitol) | Appearance of polyol solution with SnF2, pH 8-10 (listed as xylitol)
OCC(O)CO [Glycerin (3 Carbon), Glycerin] | Clear | Clear | Cloudy | Cloudy | cloudy |  |  |  |  |  |  |  | 
OC[C@@H](O)[C@@H](O)CO [Erythritol (4 Carbon), Erythritol] | Clear | Cloudy | Cloudy | Cloudy | cloudy |  |  |  |  |  |  |  | 
OC[C@@H](O)[C@@H](O)[C@H](O)[C@@H](O)CO [Sorbitol (6 Carbon), Sorbitol] | Clear | Cloudy | Cloudy | Clear |  | clear | cloudy | cloudy | clear |  |  |  | 
OC[C@@H](O)[C@H](O)[C@@H](O)CO [Xylitol (5 Carbon), Xylitol] | Clear | Cloudy | Cloudy | Clear |  |  |  |  |  | clear | cloudy | cloudy | clear
